The results in this text go back to PMC4176394 (Journal of Natural Products, 2014).

Some results are limits rather than exact numbers.

Data set [1] concerns MDA-MB-435 (melanoma) cancer cell line. As to the kind of experiment: Cytotoxicity assay, MDA-MB-435 cells. Format: cell-based, human. Conditions: for factor by which activity is reduced relative to compound 5: MDA-MB-435 cells, versus 5; for IC50: Homo sapiens, MDA-MB-435, 72 h, read-out: IC50 values, MDA-MB-435.
In data set [2] the test system is HT-29 (colon) cancer cell line. As to the kind of experiment: Cytotoxicity assay, HT-29 cells. Format: cell-based, human. The conditions noted are these: for IC50: Homo sapiens, HT-29, 72 h, read-out: IC50 values, HT-29.
A short description of another data set: Stability in solution. Format: physicochemical. The conditions noted are these: CDCl3.

As for `COc1cc(O)c(Cl)c2c1C(=O)O[C@@H](C)CCC(=O)CC/C=C/C(=O)C2` [Compound 1, greensporone A], the “factor by which activity is reduced relative to compound 5” value in data set [1] is listed as roughly 5.

Consider `COc1cc(O)c(Cl)c2c1C(=O)O[C@@H](C)CCC(=O)CC/C=C\C(=O)C2` [Compound 2, greensporone B], for which the IC50 in data set [2] and in data set [1] was greater than 20 µM throughout.

`COc1cc(O)c(Cl)c2c1C(=O)O[C@@H](C)CCC(=O)CCCCC(=O)C2` [Compound 3, 8,9-dihydrogreensporone A]: the half-inhibitory concentration (IC50) in data set [2] and in data set [1] was greater than 20 µM in each case.

In the case of `COc1cc(O)cc2c1C(=O)O[C@@H](C)CCC(=O)CC/C=C/C(=O)C2` [Compound 4, dechlorogreensporone A], the “factor by which activity is reduced relative to compound 5” value in data set [1] was roughly 5.

For `C[C@H]1CCCCC/C=C/C(=O)Cc2cc(O)cc(O)c2C(=O)O1` [Compound 6, O-desmethylgreensporone C], the “factor by which activity is reduced relative to compound 5” value in data set [2] (HT-29 cells, versus 5) is listed as 2; in data set [1], 5.

With `COc1cc(O)cc2c1C(=O)O[C@@H](C)CCCCCCCC(=O)C2` [Compound 7, 8,9-dihydrogreensporone C], the 50% inhibitory concentration (IC50) in data set [2] and in data set [1] was greater than 20 µM in each case.

Regarding `COc1cc(O)c(Cl)c2c1C(=O)O[C@@H](C)CC[C@@H](O)CC/C=C/C(=O)C2` [Compound 8, greensporone D], the stability in solution result in “Stability in solution” is “converted to 12”.

`COc1cc(O)c(Cl)c2c1C(=O)O[C@@H](C)CC[C@@H](O)CC/C=C\C(=O)C2` [Compound 9, greensporone E]: the IC50 in data set [2] and in data set [1] was greater than 20 µM in each case.

`COc1cc(O)cc2c1C(=O)O[C@@H](C)CC[C@@H](O)CC/C=C/C(=O)C2` [Compound 10, dechlorogreensporone D]: in data set [1], the “factor by which activity is reduced relative to compound 5” value is roughly 4.

`COc1cc(O)c(Cl)c2c1C(=O)O[C@@H](C)CC[C@@H](O)CCCCC(=O)C2` [Compound 11, 8,9-dihydrogreensporone D]: the IC50 in data set [2] and in data set [1] was greater than 20 µM in each case.

`COc1cc(O)cc2c1C(=O)O[C@@H](C)CC[C@H]1CC[C@@H](CC(=O)C2)O1` [Compound 13, dechlorogreensporone F]: the IC50 in data set [2] and in data set [1] was greater than 20 µM each time.

As to `COc1cc(O)cc2c1C(=O)O[C@@H](C)CC[C@H]1CC[C@H](CC(=O)C2)O1` [Compound 14, greensporone G], the IC50 in data set [2] and in data set [1] was greater than 20 µM in each case.
